These results are taken from ChEMBL document CHEMBL1142479, “Studies on the synthesis of neamine-dinucleosides and neamine-PNA conjugates and their interaction with RNA” (Bioorg Med Chem Lett, 2008).

The nature of experiment [1]: Binding affinity to 16S RNA by surface plasmon resonance. Background: SPR reads the build-up and loss of mass on a sensor chip optically.
A short description of experiment [2]: Binding affinity to 18S RNA by surface plasmon resonance.
A short description of experiment [3]: Binding affinity to trans-activation response RNA by surface plasmon resonance.
Experiment [4] can be described thus: Ratio of Kd for 18S RNA to Kd for 16S RNA.

The structures appear in SMILES notation.

With `Cc1cn([C@H]2C[C@H](OP(=O)(O)OC[C@H]3O[C@@H](n4cc(C)c(=O)[nH]c4=O)C[C@@H]3O)[C@@H](C(=O)NCCCN[C@H]3[C@@H](O)[C@H](N)C[C@H](N)[C@H]3O[C@H]3O[C@H](CN)[C@@H](O)[C@H](O)[C@H]3N)O2)c(=O)[nH]c1=O`, the Kd (commonly the free concentration of one partner at which half of the binding sites on the other are occupied at equilibrium, for simple one-to-one binding) in experiment [1] is 316 µM; in experiment [2], 555 µM; in experiment [3], 533 µM. The Ratio in experiment [4] turned out to be 1.76.

For `Cc1cn([C@H]2C[C@H](OP(=O)(O)OC[C@H]3O[C@@H](n4cc(C)c(=O)[nH]c4=O)C[C@@H]3O)[C@@H](C(=O)NCCN[C@H]3[C@@H](O)[C@H](N)C[C@H](N)[C@H]3O[C@H]3O[C@H](CN)[C@@H](O)[C@H](O)[C@H]3N)O2)c(=O)[nH]c1=O`, the dissociation constant Kd was found to be 304 µM in experiment [1], 548 µM in experiment [2] and 634 µM in experiment [3]. Also, in experiment [4], the Ratio was found to be 1.8.

With `Cc1cn(CC(=O)N(CCN)CC(=O)NCCN(CC(=O)NCCN[C@H]2[C@@H](O)[C@H](N)C[C@H](N)[C@H]2O[C@H]2O[C@H](CN)[C@@H](O)[C@H](O)[C@H]2N)C(=O)Cn2cc(C)c(=O)[nH]c2=O)c(=O)[nH]c1=O`, the Kd is 9 µM in experiment [1], 10 µM in experiment [2] and 5 µM in experiment [3]. Also, in experiment [4], the Ratio worked out at 1.11.

In the case of `Cc1cn([C@H]2C[C@H](OP(=O)(O)OC[C@H]3O[C@@H](n4cc(C)c(=O)[nH]c4=O)C[C@@H]3O)[C@@H](C(=O)NCCCCCCN[C@H]3[C@@H](O)[C@H](N)C[C@H](N)[C@H]3O[C@H]3O[C@H](CN)[C@@H](O)[C@H](O)[C@H]3N)O2)c(=O)[nH]c1=O`, the Kd was 208 µM in experiment [1], 266 µM in experiment [2] and 115 µM in experiment [3]. In addition, the Ratio in experiment [4] amounted to 1.28.

On to `NCCN(CC(=O)NCCN(CC(=O)NCCN[C@H]1[C@@H](O)[C@H](N)C[C@H](N)[C@H]1O[C@H]1O[C@H](CN)[C@@H](O)[C@H](O)[C@H]1N)C(=O)Cn1ccc(=O)[nH]c1=O)C(=O)Cn1ccc(=O)[nH]c1=O`, for which the Kd stood at 17 µM in experiment [1], 35 µM in experiment [2] and 11 µM in experiment [3]. In experiment [4], the Ratio came out at 2.06.

As for `NCCN(CC(=O)NCCN[C@H]1[C@@H](O)[C@H](N)C[C@H](N)[C@H]1O[C@H]1O[C@H](CN)[C@@H](O)[C@H](O)[C@H]1N)C(=O)Cn1cnc2c(N)ncnc21`, the equilibrium dissociation constant (Kd) in experiment [1] is 16 µM; in experiment [2], 12 µM; in experiment [3], 12 µM. Further, the Ratio in experiment [4] is 0.75.

As to `Cc1cn(CC(=O)N(CCNC(=O)CN(CCN)C(=O)Cn2ccc(=O)[nH]c2=O)CC(=O)NCCN[C@H]2[C@@H](O)[C@H](N)C[C@H](N)[C@H]2O[C@H]2O[C@H](CN)[C@@H](O)[C@H](O)[C@H]2N)c(=O)[nH]c1=O`, the Kd in experiment [1] came out at 11 µM; in experiment [2] it was 20 µM; in experiment [3] it was 6 µM. Further, the Ratio in experiment [4] amounted to 1.81.

`NC[C@H]1O[C@H](O[C@H]2[C@@H](NCCNC(=O)[C@H]3O[C@@H](n4ccc(=O)[nH]c4=O)C[C@@H]3OP(=O)(O)OC[C@H]3O[C@@H](n4ccc(=O)[nH]c4=O)C[C@@H]3O)[C@@H](O)[C@H](N)C[C@@H]2N)[C@H](N)[C@@H](O)[C@@H]1O`: the Kd in experiment [1] amounted to 180 µM; in experiment [2] it was 404 µM; in experiment [3], 417 µM. The Ratio in experiment [4] stood at 2.24.

Turning to `NCCN(CC(=O)NCCN[C@H]1[C@@H](O)[C@H](N)C[C@H](N)[C@H]1O[C@H]1O[C@H](CN)[C@@H](O)[C@H](O)[C@H]1N)C(=O)Cn1ccc(=O)[nH]c1=O`, the Kd in experiment [1] was found to be 14 µM; in experiment [2], 17 µM; in experiment [3], 24 µM. Further, the Ratio in experiment [4] was 1.21.

Regarding `Cc1cn(CC(=O)N(CCN)CC(=O)NCCN[C@H]2[C@@H](O)[C@H](N)C[C@H](N)[C@H]2O[C@H]2O[C@H](CN)[C@@H](O)[C@H](O)[C@H]2N)c(=O)[nH]c1=O`, the Kd in experiment [1] was determined as 8 µM; in experiment [2], 11 µM; in experiment [3], 10 µM. In experiment [4], the Ratio was determined as 1.38.

On to `Cc1cn([C@H]2C[C@H](OP(=O)(O)OC[C@H]3O[C@@H](n4ccc(=O)[nH]c4=O)C[C@@H]3O)[C@@H](C(=O)NCCN[C@H]3[C@@H](O)[C@H](N)C[C@H](N)[C@H]3O[C@H]3O[C@H](CN)[C@@H](O)[C@H](O)[C@H]3N)O2)c(=O)[nH]c1=O`, for which the Kd in experiment [1] worked out at 227 µM; in experiment [2], 479 µM; in experiment [3], 476 µM. Further, the Ratio in experiment [4] stood at 2.11.

With `Cc1cn(CC(=O)N(CCN)CC(=O)NCCN(CC(=O)NCCN[C@H]2[C@@H](O)[C@H](N)C[C@H](N)[C@H]2O[C@H]2O[C@H](CN)[C@@H](O)[C@H](O)[C@H]2N)C(=O)Cn2ccc(=O)[nH]c2=O)c(=O)[nH]c1=O`, the Kd in experiment [1] stood at 12 µM; in experiment [2] it was 25 µM; in experiment [3] it was 8 µM. The Ratio in experiment [4] was 2.08.

In the case of `NC[C@H]1O[C@H](O[C@H]2[C@H](O)[C@@H](O)[C@H](N)C[C@@H]2N)[C@H](N)[C@@H](O)[C@@H]1O` [NEAMINE], the Kd stood at 11 µM in experiment [1], 26 µM in experiment [2] and 11 µM in experiment [3]. Moreover, the Ratio in experiment [4] was 2.36.

Turning to `Cc1cn([C@H]2C[C@H](O)[C@@H](COP(=O)(O)O[C@H]3C[C@H](n4ccc(=O)[nH]c4=O)O[C@@H]3C(=O)NCCN[C@H]3[C@@H](O)[C@H](N)C[C@H](N)[C@H]3O[C@H]3O[C@H](CN)[C@@H](O)[C@H](O)[C@H]3N)O2)c(=O)[nH]c1=O`, the figures for the Kd in experiment [1], in experiment [2] and in experiment [3] were 352 µM, 1210 µM and 1000 µM, respectively. Moreover, the Ratio in experiment [4] turned out to be 3.45.
